Measured values from US4762848A, “1,3-thiazoles and their use as immunomodulators” (Hoechst Aktiengesellschaft, priority 1985, dated 1988).

What was measured:
macrophages [1] = experiment: Stimulation of macrophage activity (exocytosis / lysosomal enzyme activity), relative to the compound from Example 7; assay type: in vivo, NMRI mice; conditions: 100 mg/kg, 1 × i.p. day 0; relative to Example 7 = 100%
Description: (§1) This entailed investigation of the effect of the test substance obtained as in exemplary embodiment 7 on the stimulation of peritoneal macrophages in 6-8 week old NMRI mice. Female mice received the test substance in parenteral or oral doses of 25 mg/kg, 50 mg/kg, 100 mg/kg and 200 mg/kg. Buffered saline solution was administered to a control group. The mice were sacrificed three days after the injections, and the peritoneal macrophages of the animals were examined for their state of activation. The secretion of the lysosomal enzymes (β-galactosidase, β-glucuronidase and N-acetyl-β-D-glucosaminidase) was determined as one measure of macrophage activation. […] The level of oxidative metabolism in macrophages is taken as another measure of their state of activation. This activity is measured with the assistance of a biolumate by determination of the chemiluminescence.
(§2) For this purpose, either 3×10^6 macrophages were cultured with 1 ml of TC 199 culture medium in Petri dishes of diameter 30 mm or 10^6 macrophages were cultured with 100 μl of medium in round-bottomed polyethylene tubes (for determination of the chemiluminescence), with 5% CO2 and at 37° C.
(§3) After incubation for one hour, the cultures were washed to remove floating cells. The chemiluminescence (tube culture) was then determined directly, whereas the Petri dishes were incubated for a further 24 hours at 37° C. and then the enzyme and pinocytosis activities in the cultures were determined.
(§4) NMRI mice were treated with the compounds according to the invention as described in experiment 2.
(§5) The macrophage function (chemiluminescence and enzyme activity) was checked as a test to determine the immunostimulation.
(§6) It can be seen from the table that in comparison with macrophages from untreated animals, the chemiluminescence reaction of these cells was also greatly stimulated by all the test substances, and their content of lysosomal enzymes was markedly raised.

macrophages [2] = experiment: Stimulation of macrophage activity (chemiluminescence), relative to the compound from Example 7; assay type: in vivo, NMRI mice; conditions: 100 mg/kg, 1 × i.p. day 0; relative to Example 7 = 100%
Description: as §1, §2, §3, §4, §5, §6

DTH reaction (SRBC) = experiment: Stimulation of the DTH reaction, relative to the compound from Example 7; assay type: in vivo, NMRI mice; conditions: 1 × i.p. day 0, relative to Example 7 = 100%
Description: Either 10^6 or 10^9 red blood cells from sheep were administered intravenously to each animal in groups of 5 female NMRI mice weighing 18-20 g. Sheep erythrocytes are regarded in immunology as a standard test substance (antigen) for the induction of cellular and humoral immune reactions. In particular, this test provides information about the functioning of the T-cell-dependent component (T-helper cells) of the immune system. The test substance obtained as in exemplary embodiment 7 ([2-(3-carboxy-1-propylthio)-4 -methyl-1,3-thiazol-5-yl]acetic acid) was administered intraperitoneally and perorally, respectively, […], each animal received 2×10^8 sheep erythrocytes injected into the underside of the foot and, 24 hours later, the swelling of the foot was measured. The foot swelling is induced by a skin reaction of the delayed type (delayed type hypersensitivity, DTH) and is, as is known to the expert, a measure of the cellular immune response (Collins, F. M. and Mackaness, G. B., J. Immunol. 101, 830-845, 1968). The results compiled in Table 1 illustraste that there is an increase in the cellular immune response owing to the administration of the subst nce obtained according to the invention, for example after imnunization with 10^6 or 10^9 sheep erythrocytes. An optimum stimulation can be observed in this experimental design on administration of 20-40 mg/kg test substance.
NMRI mice were treated with the substances according to the invention as described in experiment 1.
The DTH reaction was checked as a test to determine the immunostimulation.
It can be seen from the table that the DTH reaction in the animals pretreated with the test substances is more pronounced than in the corresponding control animals.

Candida albicans = conditions: ketoconazole 70 mg/kg (d-1-6, p.o.) alone
Description: Female Balb/c mice (15/group) were infected intravenously with Candida albicans (10^6 cfu/mouse) (day 0). Three groups were formed: group 1 was treated with physiological saline solution, and group 2 received 70 mg/kg ketoconazole orally on 7 consecutive days (days -1-6). Group 3 received 10 intraperitoneal injections of 2 mg/kg test substance on days 3-30 (every 3rd day) in addition to ketoconazole. The number of animals which died was recorded each day, and the time at which 50% of the animals in each group had died (T50) was determined.

| Structure (SMILES) | Macrophage activity: Exocytosis, relative activity (macrophages [1]) | Macrophage activity: Chemiluminescence, relative activity (macrophages [2]) | DTH reaction (SRBC), relative activity (DTH reaction (SRBC); 100 mg/kg) | DTH reaction (SRBC), relative activity (DTH reaction (SRBC); 20 mg/kg) | T50 (time at which 50% of the animals had died) (Candida albicans) |
| --- | --- | --- | --- | --- | --- |
| O=C(O)CSc1scnc1C(=O)O [Example 15, 5-Carboxymethylthio-1,3-thiazol-4-ylcarboxylic acid] | 172% | 49% | – | – | – |
| O=C(O)CSc1nnc(SCC(=O)O)s1 [Example 25, 2,5-Dicarboxymethylthio-1,3,4-thiadiazole] | 186% | 26% | 115% | – | – |
| O=C(O)CCCSc1nnc(SCCCC(=O)O)s1 [Example 27, 2,5-Di(3-carboxy-1-propylthio)-1,3,4-thiadiazole] | 258% | 22% | – | 144% | – |
| CSc1nc(C)c(CC(=O)O)s1 [Example 1, 2-Methylmercapto-4-methyl-1,3-thiazol-5-ylacetic acid] | 124% | 29% | – | – | – |
| Cc1nc(SCCCC(=O)O)sc1C(=O)O [Example 39] | 148% | 35% | 210% | – | – |
| CC(=O)N1CCN(c2ccc(OCC3COC(Cn4ccnc4)(c4ccc(Cl)cc4Cl)O3)cc2)CC1 (centres unmarked) [Ketoconazole, ketoconazole] | – | – | – | – | 18 days |
| O=C(O)CSc1nc(O)nn1-c1ccccc1 [Example 24, 1-Phenyl-3-hydroxy-1,2,4-triazol-5-ylmercaptoacetic acid] | 218% | 57% | 115% | – | – |
